Experimental findings from patent US10501449B2 (priority 2018, dated 2019) are described below.

The target in one data set is hROMK (human Kir1.1) (Homo sapiens (Human), UniProt P48048). Nature of the data set: cell-based. To be noted: CHO T-Rex hROMK stable cell line; thallium flux; 10-point concentration response curve; read-out: Human ROMK Th Flux IC50.
The target of a further data set is hERG channels (Homo sapiens (Human), UniProt Q12809). Nature of the data set: hERG Manual Patch Clamp Assay. The note with it: human, HEK 293 cells stably expressing hERG channels, pH 7.4, 1 uM, read-out: hERG EP % Inh @ 1 uM. The class given is cell-based.
Sequence of hERG channels (Q12809 whole entry): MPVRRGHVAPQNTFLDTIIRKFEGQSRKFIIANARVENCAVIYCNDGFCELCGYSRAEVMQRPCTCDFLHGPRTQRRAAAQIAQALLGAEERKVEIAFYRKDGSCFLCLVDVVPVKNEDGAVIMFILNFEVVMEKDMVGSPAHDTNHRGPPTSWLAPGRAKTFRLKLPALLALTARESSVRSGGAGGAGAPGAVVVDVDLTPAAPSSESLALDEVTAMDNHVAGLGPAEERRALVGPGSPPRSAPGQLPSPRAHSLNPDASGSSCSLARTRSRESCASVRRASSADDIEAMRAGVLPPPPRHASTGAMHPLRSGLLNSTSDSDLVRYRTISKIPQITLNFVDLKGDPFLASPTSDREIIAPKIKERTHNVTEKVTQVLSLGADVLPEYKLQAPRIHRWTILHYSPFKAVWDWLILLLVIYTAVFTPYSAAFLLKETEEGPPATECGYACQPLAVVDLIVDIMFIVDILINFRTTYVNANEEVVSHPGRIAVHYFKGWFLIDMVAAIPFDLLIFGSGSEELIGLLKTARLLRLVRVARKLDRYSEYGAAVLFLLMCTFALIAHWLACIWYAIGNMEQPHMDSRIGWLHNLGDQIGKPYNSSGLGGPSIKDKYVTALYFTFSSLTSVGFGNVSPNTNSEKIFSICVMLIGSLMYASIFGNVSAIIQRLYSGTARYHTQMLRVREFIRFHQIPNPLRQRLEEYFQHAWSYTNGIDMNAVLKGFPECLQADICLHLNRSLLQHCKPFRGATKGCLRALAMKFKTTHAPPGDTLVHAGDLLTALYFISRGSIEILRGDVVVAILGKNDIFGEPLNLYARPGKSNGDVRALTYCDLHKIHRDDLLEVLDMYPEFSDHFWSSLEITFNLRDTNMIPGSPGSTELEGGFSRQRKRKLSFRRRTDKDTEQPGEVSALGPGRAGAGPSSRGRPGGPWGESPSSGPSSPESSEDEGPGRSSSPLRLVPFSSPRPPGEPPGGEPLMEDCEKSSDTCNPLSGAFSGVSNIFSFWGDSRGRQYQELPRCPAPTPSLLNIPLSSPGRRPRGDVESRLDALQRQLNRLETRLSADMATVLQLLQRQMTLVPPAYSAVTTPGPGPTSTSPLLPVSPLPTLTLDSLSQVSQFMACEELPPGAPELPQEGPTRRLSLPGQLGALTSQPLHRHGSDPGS

Sequence of hROMK (human Kir1.1) (P48048 whole entry): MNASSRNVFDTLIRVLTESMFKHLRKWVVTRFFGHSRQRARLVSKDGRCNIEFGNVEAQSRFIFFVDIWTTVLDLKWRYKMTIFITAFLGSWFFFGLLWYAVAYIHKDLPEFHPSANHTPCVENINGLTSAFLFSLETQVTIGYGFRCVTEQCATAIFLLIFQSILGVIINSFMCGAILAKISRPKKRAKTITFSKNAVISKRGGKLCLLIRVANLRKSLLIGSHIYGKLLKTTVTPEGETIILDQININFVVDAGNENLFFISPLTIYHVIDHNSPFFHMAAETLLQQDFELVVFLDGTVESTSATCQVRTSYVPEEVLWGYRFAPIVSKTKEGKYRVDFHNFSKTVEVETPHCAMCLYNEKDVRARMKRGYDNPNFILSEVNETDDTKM
Description for hROMK (human Kir1.1): Solutions and reagents: Thallium flux assay was performed using FluxOR kit (F10017, Life Technologies). Loading buffer, assay buffer and stimulus buffer were prepared using kit components. HBSS (Hank's balanced salt solution, Cat#14025-092) was purchased separately from Life Technologies.
To prepare 10 ml of loading buffer: 10 μl of FluxOR dye (reconstituted in DMSO) was first added to 100 μl of powerload concentrate and this mix along with 100 μl of Probenicid (100×) was then added to 9.79 ml of HBSS. Assay buffer (10 ml) was prepared by addition of 2 ml of FluxOR chloride free buffer (5×), 100 μl of Probenicid (100×), and 0.2 ml of Ouabain (13.77 mM) to 7.7 ml of deionized water. Stimulus buffer was composed of 15 mM Tl2SO4, 0.75 mM K2SO4 in FluxOR chloride free buffer (diluted to 1× using deionized water). The final concentration of Tl2SO4 and K2SO4 in the assay plate was 3 mM and 0.15 mM, respectively.
Plating and induction of cells: The CHO T-Rex hROMK (human Kir1.1) stable cell line was maintained in Ham's F12 media supplemented with 10% FBS, 1% Penicillin-Streptomycin, 500 μg/ml Zeocin and 10 μg/ml Blasticidin at 37° C. in a 5% CO2 incubator. One day before the experiment, the cells were dissociated by incubation with Versene solution (15040-066, Life Technologies) for 10 minutes at 37° C. followed by addition of growth media. The cell suspension was centrifuged at 1200 rpm for 5 min. After discarding the supernatant, the cells were resuspended in fresh growth media and cell concentration was determined using a hemocytometer. Next, 0.5 μg/ml of Doxycycline was added to the cell suspension to induce hROMK channel expression and 50 μl (10,000 cells/well) of cell suspension was added to each well of a poly-D lysine coated 384 well black, optically clear bottom plate (6007718, Perkin Elmer). The assay plate was kept at 37° C. in a 5% CO2 incubator.
Assay protocol: On the day of experiment, media was removed and loading buffer was added (30 μl/well) to the assay plate. The cells were incubated in the loading buffer for 30 minutes at 37° C. The loading buffer was then replaced by assay buffer (30 μl/well) followed by addition of test compounds or controls. The cells were incubated with compounds for 30 minutes and the plate was then mounted on FlexStation (Molecular Devices) for fluorescence read out with excitation and emission wavelengths at 488 and 525 nm, respectively. Each well was read for 90 sec at 2 sec interval and the stimulus buffer was added after 20 seconds of baseline recording. The final DMSO concentration was either 0.5 or 1% in the assay plate. Positive and negative controls were defined by addition of DMSO or 3 μM of a standard ROMK inhibitor, respectively, to the wells instead of a test compound.
A 10-point concentration response curve was used to estimate the IC50 value of test compounds.

`COc1cc(-n2cnc(CN3CCO[C@H](c4ccc5c(c4C)COC5=O)C3)c2)ncc1C#N` [Example 27-I, (R)-4-methoxy-6-(4-((2-(4-methyl-1-oxo-1,3-dihydroisobenzofuran-5-yl)morpholino)methyl)-1H-imidazol-1-yl) nicotinonitrile]: the IC50 at hROMK (human Kir1.1) was 0.032 µM. The inhibition at 1 µM on hERG channels came to 11%.
Turning to `Cc1c([C@@H]2CN(Cc3cn(-c4ccc(C#N)cn4)cn3)CCO2)ccc2c1COC2=O` [Example 28-I, (R)-6-(4-((2-(4-methyl-1-oxo-1,3-dihydroiso-benzofuran-5-yl)morpho-lino)methyl)-1H-imidazol-1-yl)nicotino-nitrile], at hROMK (human Kir1.1), the IC50 amounted to 0.085 µM. Further, the inhibition at 1 µM on hERG channels was 15%.
As for `COc1cc(-c2ncc(CN3CCO[C@H](c4ccc5c(c4C)COC5=O)C3)s2)ncc1C#N` [Example 32-I, (R)-4-methoxy-6-(5-((2-(4-methyl-1-oxo-1,3-dihydroisobenzofuran-5-yl)morpholino)methyl)thiazol-2-yl)nicotino-nitrile], the IC50 at hROMK (human Kir1.1) was 0.024 µM. The inhibition at 1 µM on hERG channels amounted to 6.2%.
As to `COc1cc(-c2ccc(CN3CCO[C@H](c4ccc5c(c4C)COC5=O)C3)cn2)ncc1C#N` [Example 35-I, (R)-4-methoxy-5′-((2-(4-methyl-1-oxo-1,3-di-hydroisobenzofuran-5-yl)morpholino)methyl)-[2,2′-bipyridine]-5-carbonitrile], on hROMK (human Kir1.1), the IC50 came out at 0.12 µM. Further, the inhibition at 1 µM at hERG channels was found to be 20%.
For `Cc1c([C@@H]2CN(Cc3ccc(-n4cnc(C#N)c4)nc3)CCO2)ccc2c1COC2=O` [Example 37-I, (R)-1-(5-((2-(4-methyl-1-oxo-1,3-dihydroiso-benzofuran-5-yl)morpho-lino)methyl)pyridin-2-yl)-1H-imidazole-4-carbonitrile], in that order: 0.016 µM and 6.2%.
For `Cc1c([C@@H]2CN(Cc3cnn(-c4ccc(C#N)cc4)c3)CCO2)ccc2c1COC2=O` [Example 40-I, (R)-4-(4-((2-(4-methyl-1-oxo-1,3-dihydroiso-benzofuran-5-yl)morpho-lino)methyl)-1H-pyrazol-1-yl)benzonitrile], in that order: 0.027 µM and 54%.
For `Cc1cc(-n2cc(CN3CCO[C@H](c4ccc5c(c4C)COC5=O)C3)cn2)ccc1C#N` [Example 46-I, (R)-2-methyl-4-(4-((2-(4-methyl-1-oxo-1,3-dihydroisobenzofuran-5-yl)morpholino)methyl)-1H-pyrazol-1-yl) benzonitrile], in that order: 0.026 µM and 43%.
Take `Cc1cc(C#N)ccc1-n1cc(CN2CCO[C@H](c3ccc4c(c3C)COC4=O)C2)cn1` [Example 47-I, (R)-3-methyl-4-(4-((2-(4-methyl-1-oxo-1,3-dihydroisobenzofuran-5-yl)morpholino)methyl)-1H-pyrazol-1-yl) benzonitrile]: at hROMK (human Kir1.1), the concentration for half-maximal inhibition (IC50) was 0.049 µM. The inhibition at 1 µM at hERG channels stood at 49%.
For `COc1cc(C#N)ccc1-n1cc(CN2CCO[C@H](c3ccc4c(c3C)COC4=O)C2)cn1` [Example 51-I, (R)-3-methoxy-4-(4-((2-(4-methyl-1-oxo-1,3-dihydroisobenzofuran-5-yl)morpholino)methyl)-1H-pyrazol-1-yl) benzonitrile], in that order: 0.029 µM and 43%.
For `Cc1cc(-n2cc(CN3CCO[C@H](c4ccc5c(c4C)COC5=O)C3)c(C)n2)ncc1C#N` [Example 52-I, (R)-4-methyl-6-(3-methyl-4-((2-(4-methyl-1-oxo-1,3-dihydroisobenzo-furan-5-yl)morpholino)methyl)-1H-pyrazol-1-yl)nicotinonitrile], in that order: 0.0028 µM and 72%.
For `Cc1c([C@@H]2CN(Cc3cnn(-c4cc(C)c5oc(=O)n(C)c5c4)c3)CCN2)ccc2c1COC2=O` [Example 57-I, (R)-3,7-dimethyl-5-(4-((3-(4-methyl-1-oxo-1,3-dihydroisobenzofuran-5-yl)piperazin-1-yl)methyl)-1H-pyrazol-1-yl)benzo[d]oxazol-2(3H)-one], in that order: 0.059 µM and 26%.
Take `COc1cc(-c2ccc(CN3CCN[C@H](c4ccc5c(c4C)COC5=O)C3)cn2)ncc1C#N` [Example 63-I, (R)-4-methoxy-5′-((3-(4-methyl-1-oxo-1,3-di-hydroisobenzofuran-5-yl)piperazin-1-yl)methyl)-[2,2′-bipyridine]-5-carbonitrile]: the IC50 at hROMK (human Kir1.1) came out at 0.06 µM. For the same compound, at hERG channels, the inhibition at 1 µM turned out to be 23%.
For `Cc1c([C@@H]2CN(Cc3ccc(-n4cc(C#N)cn4)nc3)CCN2)ccc2c1COC2=O` [Example 64-I, (R)-1-(5-((3-(4-methyl-1-oxo-1,3-dihydroiso-benzofuran-5-yl)piper-azin-1-yl)methyl)pyri-din-2-yl)-1H-pyrazole-4-carbonitrile], in that order: 0.0088 µM and 45%.
`Cc1cc(-n2cc(CN3CCN(C)[C@H](c4ccc5c(c4C)COC5=O)C3)cn2)ncc1C#N` [Example 70-I, (R)-4-methyl-6-(4-((4-methyl-3-(4-methyl-1-oxo-1,3-dihydroisobenzo-furan-5-yl)piperazin-1-yl)methyl)-1H-pyra-zol-1-yl)nicotinonitrile]: the IC50 at hROMK (human Kir1.1) came to 0.059 µM. Also, the inhibition at 1 µM on hERG channels is 8.4%.
On to `Cc1cc(-n2cc(CN3CC[C@@H](O)[C@H](c4ccc5c(c4C)COC5=O)C3)nn2)ncc1C#N` [Example 84-I, 6-(4-(((3R,4R)-4-hydroxy-3-(4-methyl-1-oxo-1,3-dihydroisobenzofuran-5-yl)piperidin-1-yl)methyl)-1H-1,2,3-triazol-1-yl)-4-methylnicotinonitrile], for which, at hROMK (human Kir1.1), the IC50 came out at 0.052 µM. For the same compound, the inhibition at 1 µM at hERG channels is 6.7%.
For `COc1cc(-n2cc(CN3C[C@@H](c4ccc5c(c4C)COC5=O)N[C@@H](C)C3)nn2)nc(C)c1C#N` [Example 86-I, 4-methoxy-2-methyl-6-(4-(((3S,5R)-3-methyl-5-(4-methyl-1-oxo-1,3-dihydroisobenzofur-an-5-yl)piperazin-1-yl)methyl)-1H-1,2,3-triazol-1-yl)nicotinonitrile], in that order: 0.064 µM and 8.8%.
For `COc1nc(-n2cc(CN3C[C@@H](c4ccc5c(c4C)COC5=O)N[C@@H](C)C3)cn2)ccc1C#N` [Example 93-I, 2-methoxy-6-(4-(((3S,5R)-3-methyl-5-(4-methyl-1-oxo-1,3-dihydroisobenzofur-an-5-yl)piperazin-1-yl)methyl)-1H-pyrazol-1-yl)nicotinonitrile], in that order: 0.044 µM and 23%.
Regarding `Cc1nc(-n2cnc(CN3C[C@@H](c4ccc5c(c4C)COC5=O)N[C@@H](C)C3)c2)nc(C)c1C#N` [Example 95-I, 4,6-dimethyl-2-(4-(((3S,5R)-3-methyl-5-(4-methyl-1-oxo-1,3-dihydroisobenzofur-an-5-yl)piperazin-1-yl)methyl)-1H-imidazol-1-yl)pyrimidine-5-carbonitrile], at hROMK (human Kir1.1), the IC50 is 0.026 µM. In addition, the inhibition at 1 µM on hERG channels worked out at 13%.
For `Cc1nc(-n2cc(CN3C[C@@H](c4ccc5c(c4C)COC5=O)N[C@@H](C)C3)cn2)ncc1C#N` [Example 96-I, 4-methyl-2-(4-(((3S,5R)-3-methyl-5-(4-methyl-1-oxo-1,3-dihydroisobenzofur-an-5-yl)piperazin-1-yl)methyl)-1H-pyrazol-1-yl)pyrimidine-5-carbonitrile], in that order: 0.027 µM and 9.6%.
For `Cc1nc(-n2ncc(CN3C[C@H](CO)N[C@H](c4ccc5c(c4C)COC5=O)C3)n2)ncc1C#N` [Example 104-I, 2-(4-(((3R,5R)-3-(hydroxymethyl)-5-(4-methyl-1-oxo-1,3-dihydroisobenzofur-an-5-yl)piperazin-1-yl)methyl)-2H-1,2,3-triazol-2-yl)-4-methylpyrimidine-5-carbonitrile] the same measures were 0.036 µM and 3.4%.
For `COc1cc(-n2cc(CN3CC[C@@H](O)[C@H](c4ccc5c(c4C)COC5=O)C3)cn2)ncc1C#N` [Example 112-I, 6-(4-(((3R,4R)-4-hydroxy-3-(4-methyl-1-oxo-1,3-dihydroisobenzofur-an-5-yl)piperidin-1-yl)methyl)-1H-pyrazol-1-yl)-4-methoxynicotinonit-rile], in that order: 0.018 µM and 22%.
Turning to `Cc1cc(-n2cc(CN3CC(c4ccc5c(c4C)COC5=O)C(O)C(C)(C)C3)cn2)ncc1C#N` (centres unmarked) [Example 116-I, 6-(4-((4-hydroxy-3,3-dimethyl-5-(4-methyl-1-oxo-1,3-dihydroisobenzofuran-5-yl)piperidin-1-yl)methyl)-1H-pyrazol-1-yl)-4-methylnicotinonitrile], the IC50 at hROMK (human Kir1.1) is 0.039 µM. Also, the inhibition at 1 µM on hERG channels is 6.4%.
For `Cc1cc(-n2cnc(CN3C[C@@H](c4ccc5c(c4C)COC5=O)N[C@@H](C)C3)n2)ncc1C#N` [Example 122-I, 4-methyl-6-(3-(((3S,5R)-3-methyl-5-(4-methyl-1-oxo-1,3-dihydroisobenzofuran-5-yl)piperazin-1-yl)methyl)-1H-1,2,4-triazol-1-yl)nicotinonitrile], in that order: 0.05 µM and 6.6%.
For `Cc1cc(-c2ncc(CN3CC[C@@H](O)[C@H](c4ccc5c(c4C)COC5=O)C3)s2)ncc1C#N` [Example 125-I, 6-(5-(((3R,4R)-4-hydroxy-3-(4-methyl-1-oxo-1,3-dihydroisobenzofuran-5-yl)piperidin-1-yl)methyl)thiazol-2-yl)-4-methylnicotinonitrile], the IC50 at hROMK (human Kir1.1) was 0.03 µM. In addition, the inhibition at 1 µM on hERG channels turned out to be 8.3%.
For `Cc1c([C@@H]2CN(Cc3cnn(-c4ccnc(C(F)(F)F)c4)c3)C[C@H](C)N2)ccc2c1COC2=O` [Example 128-I, 4-methyl-5-((2R,6S)-6-methyl-4-((1-(2-(trifluoromethyl)pyridin-4-yl)-1H-pyrazol-4-yl)methyl)piperazin-2-yl)isobenzofuran-1(3H)-one], in that order: 0.066 µM and 19%.

In general, IC50 refers to the point on the concentration scale where inhibition reaches its midpoint.
